Test results: patent publication US6335306B1, “Thermosensitive recording material of heat fixing type and method of fixing the same” (Oji Paper Co., Ltd., priority 1998, dated 2002)
Counter-ions that a name gives are not always drawn.

Test: Color Developer Test Method: solvent resistance of the color image, salad oil (Mds)
Type: physicochemical
Conditions: colored portion coated with salad oil, wiped, left standing 0.5 hour; Macbeth RD-914
Protocol: (§1) Thermosensitive recording paper sheet is prepared by a process which will be described below.
(§2) The above-described composition is pulverized with a paint shaker to an average particle diameter of about 1 μm.
(§3) The above-described composition is pulverized with a paint shaker to an average particle diameter of not larger than 1 μm.
(§4) The above-described composition is pulverized with a paint shaker to an average particle article diameter of not larger than 1 μm.
(§5) A coating liquid is obtained by mixing 60 parts of the dispersion A, 240 parts of the dispersion B, 80 parts of the dispersion C, and 90 parts of 10% aqueous polyvinyl alcohol solution under stirring. The coating liquid thus obtained is applied to the support so that the amount of the coating after drying would be 8.0 g/m^2 to form a thermosensitive color image-forming layer, and thereby to obtain a thermosensitive recording paper.
(§6) The sample thus obtained is printed with a coloring tester (THPMD; a product of Ohkura Electric Co., Ltd.) under conditions comprising a printing voltage of 21.7 V and printing pulse of 1.0 ms. The color density of the printed parts is determined with a Macbeth Reflection Color Density Tester RD-914 (a product of Macbeth).
(§7) The colored portion of the thermosensitive recording material thus obtained in (5) is coated with dioctyl phthalate or salad oil, which is then removed by wiping with Klinex, followed by leaving it for standing for 0.5 hour and measuring the density of the printed parts is determined with a Macbeth Reflection Color Density Tester RD-914 (a product of Macbeth).
(§8) The solvent resistance of the color image formed by using the color developer can be evaluated based on the Macbeth density (hereinafter referred to as “Mdd”) of 0.2 or higher, preferably 0.4 or higher according to the Color Developer Test Method as stated above wherein dioctyl phthalate is used. The solvent resistance of the color image formed using the color developer can be evaluated based on the Macbeth density (hereinafter referred to as “Mds”) of 0.5 or higher, preferably 0.6 or higher according to the Color Developer Test Method as stated above wherein salad oil is used.

Mds (Macbeth density of the printed part after coating with salad oil) | Structure (SMILES)
0.73 | Cc1ccc(S(=O)(=O)NC(=O)Nc2cccc3cccc(NC(=O)NS(=O)(=O)c4ccc(C)cc4)c23)cc1 [1,8-bis(p-toluenesulfonylaminocarbonylamino)naphthalene]
0.5 | O=C(Nc1ccc(Cc2ccc(NC(=O)NS(=O)(=O)c3cccc4ccccc34)cc2)cc1)NS(=O)(=O)c1cccc2ccccc12 [4,4′-bis(1-naphthalenesulfonylaminocarbonylamino) diphenyl methane]
1.2 | Cc1ccc(S(=O)(=O)NC(=O)Nc2cccc(NC(=O)NS(=O)(=O)c3ccc(C)cc3)c2)cc1 [1,3-bis(p-toluenesulfonylaminocarbonylamino)benzene]
0.6 | O=S(=O)(c1ccccc1)c1ccc(O)c(S(=O)(=O)c2ccccc2)c1 [2,4-bis(phenylsulfonyl)phenol]
0.84 | Cc1ccc(S(=O)(=O)NC(=O)Nc2ccc(NC(=O)NS(=O)(=O)c3ccc(C)cc3)cc2)cc1 [1,4-bis(p-toluenesulfonylaminocarbonylamino)benzene]
1.05 | Cc1ccc(S(=O)(=O)NC(=O)Nc2cccc3c(NC(=O)NS(=O)(=O)c4ccc(C)cc4)cccc23)cc1 [1,5-bis(p-toluenesulfonylaminocarbonylamino)naphthalene]

Test: Color Developer Test Method: solvent resistance of the color image, dioctyl phthalate (Mdd)
Type: physicochemical
Conditions: colored portion coated with dioctyl phthalate, wiped, left standing 0.5 hour; Macbeth RD-914
Protocol: as §1, §2, §3, §4, §5, §6, §7, §8

Mdd (Macbeth density of the printed part after coating with dioctyl phthalate) | Structure (SMILES)
0.5 | COc1ccc(OCCOc2ccc(C(=O)O)c(O)c2)cc1 [4-(2-(p-methoxyphenyloxy)ethyloxy)salicylic acid]
1.0 | Cc1ccccc1S(=O)(=O)NC(=O)Nc1ccc(Cc2ccc(NC(=O)NS(=O)(=O)c3ccccc3C)cc2)cc1 [4,4′-bis(o-toluenesulfonylaminocarbonylamino)diphenyl methane]
0.96 | Cc1ccc(S(=O)(=O)NC(=O)Nc2ccc(Sc3ccc(NC(=O)NS(=O)(=O)c4ccc(C)cc4)cc3)cc2)cc1 [4,4′-bis(p-toluenesulfonylaminocarbonylamino)diphenyl sulfide]
1.0 | Cc1ccc(S(=O)(=O)NC(=O)Nc2ccc(Oc3ccc(NC(=O)NS(=O)(=O)c4ccc(C)cc4)cc3)cc2)cc1 [4,4′-bis(p-toluenesulfonylaminocarbonylamino)diphenyl ether]
1.0 | Cc1ccc(S(=O)(=O)NC(=O)Nc2ccc(Cc3ccc(NC(=O)NS(=O)(=O)c4ccc(C)cc4)cc3)cc2)cc1 [4,4′-bis(p-toluenesulfonylaminocarbonylamino)diphenylmethane]
0.8 | O=C(Nc1ccc(Cc2ccc(NC(=O)NS(=O)(=O)c3ccccc3)cc2)cc1)NS(=O)(=O)c1ccccc1 [4,4′-bis(benzenesulfonylaminocarbonylamino)diphenyl methane]

Second part, the compound before the results:

Structure (SMILES) | Mdd (Macbeth density of the printed part after coating with dioctyl phthalate)
Cc1ccc(S(=O)(=O)NC(=O)Nc2ccc(Oc3cccc(NC(=O)NS(=O)(=O)c4ccc(C)cc4)c3)cc2)cc1 [3,4′-bis(p-toluenesulfonylaminocarbonylamino)diphenyl ether] | 0.93
Cc1ccc(S(=O)(=O)NC(=O)Nc2ccc(Oc3cccc(Oc4ccc(NC(=O)NS(=O)(=O)c5ccc(C)cc5)cc4)c3)cc2)cc1 [1,3-bis(4′-(p-toluenesulfonylaminocarbonylamino)phenyloxy)benzene] | 1.0
Cc1ccc(S(=O)(=O)NC(=O)Nc2cccc(S(=O)(=O)c3cccc(NC(=O)NS(=O)(=O)c4ccc(C)cc4)c3)c2)cc1 [3,3′-bis(p-toluenesulfonylaminocarbonylamino)diphenylsulfone] | 0.63
CC(C)(c1ccc(O)cc1)c1ccc(O)cc1 [2,2-bis(4-hydroxyphenyl)propane, reference compound] | 0.1
Cc1ccc(S(=O)(=O)NC(=O)Nc2ccc(S(=O)(=O)c3ccc(NC(=O)NS(=O)(=O)c4ccc(C)cc4)cc3)cc2)cc1 [4,4′-bis(p-toluenesulfonylaminocarbonylamino)diphenylsulfone] | 0.81

Same assay, conditions: colored portion coated with dioctyl phthalate, wiped, left standing 0.5 hour; Macbeth RD-914; listed as 3,4′-bis(p-toluenesulfonylaminocarbonylamino)diphenyl ether

Mdd (Macbeth density of the printed part after coating with dioctyl phthalate) | Structure (SMILES)
1.0 | Cc1ccc(S(=O)(=O)NC(=O)Nc2ccc(Oc3cccc(NC(=O)NS(=O)(=O)c4ccc(C)cc4)c3)cc2)cc1 [3,4′-bis(p-toluenesulfonylaminocarbonylamino)diphenyl ether]

Test: log P, OECD Chemical Test Guideline No. 117, partition coefficient
Conditions: OECD Guideline No. 117
Text: The log P in the present invention is a value determined according to OECD Test, Chemical Test Guideline No. 117, Partition Coefficient; edited by Chemical Product Examination Association). The log P is the logarithm of the partition coefficient P. The higher the value of the partition coefficient, the higher the hydrophobicity; and the lower thereof, the higher the hydrophilicity.

log P | Structure (SMILES)
3.3 | C=CCOc1ccc(S(=O)(=O)c2ccc(OCC=C)cc2)cc1 [4,4′-diallyloxydiphenylsulfone]
5.8 | O=C(CCCCC(=O)OCc1ccccc1Cl)OCc1ccccc1Cl [di-o-chlorobenzyl adipate]

Same assay, conditions: n-octanol/water

chromatographic logP | Structure (SMILES)
5.1 | O=C(Oc1ccccc1)c1ccc2ccccc2c1O [phenyl 1-hydroxy-2-naphthoate]
6.3 | c1ccc(Cc2ccc(-c3ccccc3)cc2)cc1 [p-benzylbiphenyl]
3.1 | Cc1ccc(OS(=O)(=O)c2c(C)cc(C)cc2C)cc1 [p-tolyl mesitylenesulfonate]
2.9 | COc1ccc(OCCOCCOc2ccc(OC)cc2)cc1 [bis(2-(4-methoxyphenoxy)ethyl) ether]
5.7 | O=C(OCc1ccccc1)c1ccc(C(=O)OCc2ccccc2)cc1 [dibenzyl terephthalate]
0.2 | CC(=O)CC(=O)Nc1ccccc1Cl [o-chloroacetoacetoanilide]

More lines, now with the values behind:

Structure (SMILES) | chromatographic logP
Cc1ccc(Oc2ccc(Oc3ccc(C)cc3)cc2)cc1 [1,4-bis(p-tolyloxy)benzene] | 3.1
Cc1cccc(OCCOc2cccc(C)c2)c1 [1,2-bis(m-tolyloxy)ethane] | 5
c1ccc(OCCOc2ccc3ccccc3c2)cc1 [1-phenoxy-2-β-naphthoxyethane] | 5.2

Same assay, conditions: n-octanol/water (OECD Test Guideline 117, HPLC method)

chromatographic logP | Structure (SMILES)
3.1 | O=C(OCc1ccccc1)C(=O)OCc1ccccc1 [dibenzyl oxalate]
5.1 | O=C(Oc1ccccc1)c1ccc2ccccc2c1O [phenyl 1-hydroxy-2-naphthoate]
3.1 | Cc1ccc(S(=O)(=O)Oc2ccccc2)cc1 [phenyl p-toluenesulfonate]

Continued, compound first:

Structure (SMILES) | chromatographic logP
c1ccc(OCCOc2ccccc2)cc1 [1,2-diphenoxyethane] | 3.6
O=S(=O)(c1ccccc1)c1ccccc1 [diphenylsulfone] | 1.5

Same assay, conditions: octanol/water

Structure (SMILES) | chromatographic logP
Cc1ccc(CCc2ccc(C)c(C)c2)cc1C [1,2-bis(3,4-dimethylphenyl)ethane] | 7.8
c1ccc(-c2cccc(-c3ccccc3)c2)cc1 [m-terphenyl] | 6.16
